# In patent US20110092439A1, “METHOD OF PROMOTING WOUND HEALING” (priority 2008, published 2011):
# “Also recorded” adds a separate entry of the source.
# How the values were obtained:
# [1] = Canine gingiva study: RLX migration and degradation after gingival injection (SELDI-TOF MS); type: in vivo, dog
# [2] = test system: wounded sites; conditions: systemic relaxin, rats; cited from earlier work
# [3] = test system: 20×6 mm incisional wounds on the back; test: Porcine skin wound study; type: in vivo, juvenile pigs
# From the text: Overview of the Animal Study. In selecting the appropriate animal for this study, a pig was selected because of the anatomical similarities between pig skin and human skin. In fact, pig wound healing has been used in numerous studies to simulate human skin (Sullivan et al., Wound Repair Regen. 9: 66-76, 2001).
# Design of Study. In this study, juvenile pigs were oriented with twelve wound sites per animal—20×6 mm incisional wounds on the back—over the course of a six week study (see FIG. 2). Systemic relaxin was delivered via mini-pumps to achieve 20 ng/mL serum concentrations. Topical formulations were prepared by Dow Pharma, and consisted of propylene glycol and ethanol, which contributed to good long term stability of the therapeutic agent. Dosages consisting of placebo, 0.5 mg/mL (low dose), and 2.5 mg/mL (high dose) were prepared. The goals of the study were to assess the safety of topical relaxin on wound healing and to determine the efficacy of relaxin as a treatment for wound healing and/or scar formation. During the first week, irrigation was performed once daily. During weeks 2-3, topical formulation was applied twice daily, and during weeks […], topical formulation was applied once daily.
# Design of Drug. The study drug was relaxin (produced by recombinant technology). Recombinant relaxin is identical to the native human hormone H2 relaxin, produced using a recombinant single chain process. The active test article may be aseptically diluted to the desired concentration with the acetate diluent (20 mM sodium acetate, pH 5.0).
# Study Procedures. Referring to FIG. 3 which depicts the back of a pig with incisions according to the experimental design described herein at the completion of six weeks, the wound in Section 3 was irrigated with relaxin construct during the first week, and subsequently treated with high dose topical relaxin formulation during weeks 2-6 as described above. Sections 4, 5, and 6 received no irrigation during week 1. Section 4 was treated with placebo. Section 5 was treated with low dose topical formulation, and Section 6 was treated with high dose topical formulation.
# Cosmetic appearance of skin. Visual rankings of wound pictures were conducted by neutral observers who evaluated scabs during early wound healing (days 5-7) and scars at the end of the study (see FIG. 4). […] The results of this visual wound assessment determined that 89% of the time a relaxin treatment group was selected in the top three. Only 11% of the time, a group not treated with relaxin was selected in the top three.
# A cosmetic score was also determined by a professional dermatologist at weeks 2, 4, and 6. The cosmetic score has five components: (1) color—matching with surrounding skin; (2) texture—no hardness; (3) distortion—no distortion of nearby skin; (4) contour—flush with surrounding skin; (5) global—no hypertrophy or keloid formation. During this dermatological assessment, evaluation at time 2 weeks was obscured by scabs, so the data for cosmetic scores was collected from evaluation at weeks 4 and 6 (see FIG. 5). […] In the bottom profile, the scar is visible.
# Histological evaluation. A professional histopathologist evaluated the pathology of the treatments for such indications as granulation, inflammation, and necrosis. In judging granulation tissue, it is considered that early response to wound includes invasion of the site by fibroblasts, inflammatory cells, and new blood vessels. Over time, this resolves to more normal tissue as the site heals. Chronic inflammation characterized by the presence of macrophages, giant cells, lymphocytes, and PMNs indicated adverse reaction. Minor factors such as keratosis (formation of keratin layer outside the epidermis) and acanthosis (thickening of the epidermal layer) are also considered. […]
# [4] = test system: tooth movement; conditions: RLX via gingival injections, dog models; cited from earlier work
# [5] = Canine gingiva study: RLX migration and degradation after gingival injection (SELDI-TOF MS); type: in vivo, dog; conditions: for migration of RLX through the gingiva: after gingival injection; for concentration of H2 RLX detected in treated gingiva: site of injection
# Procedure: The aim of this study was to determine the rate of RLX migration and extent of degradation after gingival injections. […] Employing a dog model, RLX was administered and tissue punch biopsies were collected at the site of injection and 0.5, 1 and 2 cm from the site of injection. Tissue was collected at several time points including 1, 2 and 4 hrs after injection. Protein was extracted from the gingival biopsies and analysed via ProteinChip technology (Surface Enhanced Laser Desorption/Ionization Time-of-Flight Mass Spectrometry, SELDI-TOF MS), which combines two well-established methods of solid phase chromatography and TOF-MS into an integrated platform. ProteinChip arrays were coated with anti-H2 RLX Ab, allowing the specific capture of RLX and associated breakdown/modified products.
# Design of Drug. Gingival injections were administered (25 μg H2 RLX/100 μl, 41 μM) and tissue was collected at several positions including the site of injection and 0.5, 1 and 2 cm from the site of injection. Tissue was collected 1, 2 and 3 hrs after injection.
# a) Protein Extraction and Quantitation. Frozen gingival biopsies were homogenized in extraction buffer (10 μl/mg tissue) containing 10 mM Tris-HCl, 10 mM NaCl, 0.1% TFA and protease inhibitor (complete mini, Roche). The extract was centrifuged (6000×g) for 10 min and the supernatant was collected, aliquoted and stored at −80° C. Total protein concentration was determined using the Bradford assay. Protein concentrations ranged from 1.4 mg/ml to 2.8 mg/ml, all samples were standardized to 1.4 mg/ml in extraction buffer.
# b) SELDI-TOF MS analysis—Analysis of RLX treated gingiva on PG20 arrays. Anti-H2 RLX Ab (2 μl/0.25 mg/ml; Genentech) or control IgG (Ciphergen Biosystems) was applied to each spot of a PS20 array which had been pre-coated with Protein G (Ciphergen Biosystems). After antibody binding, the chip was washed once with PBS/0.5% Triton X-100 for 5 min with agitation (5 μl per spot), followed by two PBS washes. Dog gingiva extracts (3 μl/1.4 mg/ml) were applied to each spot and incubated for 4 hrs. Non-specifically bound proteins were removed by sequentially washing with PBS/0.5% Triton X-100, PBS and 1 mM HEPES, pH 7.2. The chips were air dried and 1 μl of 50% saturated sinapinic acid in 50% (v/v) acetonitrile, 0.5% trifluoroacetic acid was applied onto each spot twice, arrays were air dried between each application. Chips were subsequently analysed by SELDI-TOF MS (Ciphergen Biosystems) using the following settings, laser 220 and sensitivity 9.
# c) Generation of H2 RLX Std Curve on PG20 arrays. H2 RLX (batch number 11835-89) was spiked into control dog gingiva (1.4 mg/ml) at different concentrations, including 100 nM, 50 nM, 12.5 nM, 6.25 nM, 3.125 nM and 1.56 nM and analysed as described above.
# [6] = systemic relaxin vs no systemic relaxin
# [7] = systemic relaxin, after six weeks, blinded histopathology
substance,measurement,setting,value
relaxin,RLX detection at the remaining time points,[1]; 2 and 4 hrs,only detected at the site of injection
same,concentration of H2 RLX detected in treated gingiva,"[1]; site of injection, 4 hrs after gingival injection of 25 μg H2 RLX/100 μl",21 nM
same,VEGF and bFGF transcripts,[2],upregulation
same,new blood vessel formation selectively at wounded sites,[2],increased
same,blood vessels in the wound site,[3]; after about six weeks of treatment,overall reduction
same,relaxin treatment group selected in the top three in visual wound assessment,[3]; blinded neutral observers ranking best three of six groups of wound pictures,89 % of the time
same,adverse effects / tolerability over dose range,[3]; dose range 10-960 μg/kg/day,no relevant adverse effects; also recorded: well-tolerated
same,wound healing / cosmetic ranking with irrigation relaxin treatment versus topical only,[3]; irrigation week 1 then high dose topical weeks 2-6,particularly efficacious; also recorded: ranked higher overall
same,wound healing with topical-only relaxin compared to placebo,"[3]; low dose 0.5 mg/mL and high dose 2.5 mg/mL topical formulation, six weeks",improved wound healing
same,adverse effects associated with relaxin treatment,"[3]; pig, in vivo",no adverse effects
same,necrosis or inflammation associated with relaxin treatment,"[3]; pig, in vivo",no necrosis or inflammation
same,scarring on histopathological slide,"[3]; relaxin treatment, six weeks, no relaxin: severe scarring",mild scarring
same,wound healing after systemic treatment compared to topical administration,[3]; some indications,better wound healing
same,"collagen organization (objective collagen scoring, red pixel ratio)",[3]; [6],significantly better
same,composite wound healing score (three point collagen scale),[3]; [6],significantly improved
same,wound appearance versus control pig,"[3]; systemic relaxin, after day six","healed faster, better"
same,chronic inflammation in wound sites,[3]; [7],reduces; also recorded: significantly reduced
same,granulation tissue in wound sites,[3]; [7],reduces; also recorded: significantly reduced
same,scar visibility at wound site,"[3]; systemic relaxin, six weeks of treatment, vs placebo (red scar visible)",invisible; also recorded: no scar was visible
same,relapse,[4],prevent relapse
same,tooth movement,[4],speed tooth movement
same,RLX detection 0.5 cm from the site of injection,[5]; 1 hr time point,detected
same,RLX detection 1 cm from the site of injection,[5]; 1 hr time point,not detected
same,RLX detection 2 cm from the site of injection,[5]; 1 hr time point,not detected
same,migration of RLX through the gingiva,[5],stayed close to the injection site
same,migration of RLX through the gingiva,[5]; listed as RLX,stayed close to the injection site; also recorded: limited migration
same,concentration of H2 RLX detected in treated gingiva,[5]; 1 hr after gingival injection of 25 μg H2 RLX/100 μl,90 nM
same,concentration of H2 RLX detected in treated gingiva,[5]; 2 hrs after gingival injection of 25 μg H2 RLX/100 μl,78 nM
